Source: ChEMBL document CHEMBL3885861, “Open TG-GATES”

Species: Rattus norvegicus
Experiment: Open TG-GATES - Regimen: Daily Repeat
Assay type: toxicity, organism-based, Sprague-Dawley
Set-up: regimen Daily Repeat, gender Male, age 6 weeks
Conditions: in vivo, po, route gavage; for APTT / Bas / Eos / Fbg / Hb / Ht / Lym / MCH / MCHC / MCV / Mono / Neu / PT / Plat / RBC / Ret / WBC: tissue Blood; for KIDNEY_L / KIDNEY_R / KIDNEY_TOTAL: tissue Kidney; for LIVER: tissue Liver; for A/G / ALP / ALT / AST / BUN / CRE / Ca / Cl / DBIL / GLC / IP / K / LDH / Na / PL / RALB / TBIL / TC / TG / TP / gamma-GTP: tissue Plasma
[1] = 0 mg/kg, 72 h, dose level Control, time 3 day
[2] = 0 mg/kg, […], dose level Control, time 7 day
[3] = 0 mg/kg, […], dose level Control, time 14 day
[4] = 0 mg/kg, […], dose level Control, time 28 day
[5] = 50 mg/kg, 72 h, dose level Low, time 3 day
[6] = 50 mg/kg, […], dose level Low, time 7 day
[7] = 50 mg/kg, […], dose level Low, time 14 day
[8] = 50 mg/kg, […], dose level Low, time 28 day

## CN1C(=O)CCS(=O)(=O)C1c1ccc(Cl)cc1 (centres undefined) [CHLORMEZANONE]
[1]
  TERMINAL_BW: 227.8 g
  APTT: 15.7 s
  Bas: 0%
  Eos: 1%
  Fbg: 283.6 mg/dL
  Hb: 13.4 g/dL
  Ht: 39.1%
  Lym: 77.8%
  MCH: 22.1 pg
  MCHC: 34.4%
  MCV: 64.3 fL
  Mono: 3%
  Neu: 17.8%
  PT: 12 s
  Plat: 114.7 x10_4/uL
  RBC: 608.2 x10_4/ul
  Ret: 6.7%
  WBC: 81.1 x10_2/uL
  KIDNEY_L: 0.9 g
  KIDNEY_R: 0.9 g
  KIDNEY_TOTAL: 1.8 g
  LIVER: 10.6 g
  A/G: 0.9
  ALP: 1545.4 IU/L
  ALT: 48.4 IU/L
  AST: 68.2 IU/L
  BUN: 14.6 mg/dL
  CRE: 0.2 mg/dL
  Ca: 10.9 mg/dL
  Cl: 108.4 meq/L
  DBIL: 0.01 mg/dL
  GLC: 193.6 mg/dL
  IP: 6.7 mg/dL
  K: 4.2 meq/L
  LDH: 63.4 IU/L
  Na: 143.4 meq/L
  PL: 148.4 mg/dL
  RALB: 2.7 g/dL
  TBIL: 0.026 mg/dL
  TC: 88.8 mg/dL
  TG: 90 mg/dL
  TP: 5.8 g/dL
  gamma-GTP: 1.2 IU/L
[2]
  TERMINAL_BW: 269.2 g
  APTT: 17.6 s
  Bas: 0%
  Eos: 0.8%
  Fbg: 294.6 mg/dL
  Hb: 13.9 g/dL
  Ht: 41%
  Lym: 79.4%
  MCH: 22.1 pg
  MCHC: 33.9%
  MCV: 65.3 fL
  Mono: 2.4%
  Neu: 16.6%
  PT: 11.9 s
  Plat: 113.1 x10_4/uL
  RBC: 627.6 x10_4/ul
  Ret: 6.5%
  WBC: 91.2 x10_2/uL
  KIDNEY_L: 1 g
  KIDNEY_R: 1 g
  KIDNEY_TOTAL: 2.1 g
  LIVER: 13 g
  A/G: 0.9
  ALP: 1745 IU/L
  ALT: 44 IU/L
  AST: 68.2 IU/L
  BUN: 16.6 mg/dL
  CRE: 0.2 mg/dL
  Ca: 11.6 mg/dL
  Cl: 107.8 meq/L
  DBIL: 0.016 mg/dL
  GLC: 181.4 mg/dL
  IP: 6.9 mg/dL
  K: 4.3 meq/L
  LDH: 89.8 IU/L
  Na: 144 meq/L
  PL: 152 mg/dL
  RALB: 2.8 g/dL
  TBIL: 0.034 mg/dL
  TC: 82.6 mg/dL
  TG: 121.6 mg/dL
  TP: 6 g/dL
  gamma-GTP: 1 IU/L
[3]
  TERMINAL_BW: 301.6 g
  APTT: 16.9 s
  Bas: 0%
  Eos: 1%
  Fbg: 306.8 mg/dL
  Hb: 14.5 g/dL
  Ht: 41.2%
  Lym: 76.2%
  MCH: 20.7 pg
  MCHC: 35.3%
  MCV: 58.8 fL
  Mono: 2%
  Neu: 20.4%
  PT: 11.8 s
  Plat: 123 x10_4/uL
  RBC: 701 x10_4/ul
  Ret: 3.5%
  WBC: 70.8 x10_2/uL
  KIDNEY_L: 1.2 g
  KIDNEY_R: 1.1 g
  KIDNEY_TOTAL: 2.3 g
  LIVER: 12.6 g
  A/G: 0.8
  ALP: 1484.4 IU/L
  ALT: 48 IU/L
  AST: 63.8 IU/L
  BUN: 14.4 mg/dL
  CRE: 0.2 mg/dL
  Ca: 11.2 mg/dL
  Cl: 107.8 meq/L
  DBIL: 0.008 mg/dL
  GLC: 191.6 mg/dL
  IP: 6.3 mg/dL
  K: 4 meq/L
  LDH: 47 IU/L
  Na: 143.6 meq/L
  PL: 136.4 mg/dL
  RALB: 2.8 g/dL
  TBIL: 0.064 mg/dL
  TC: 70.8 mg/dL
  TG: 74.8 mg/dL
  TP: 6.1 g/dL
  gamma-GTP: 1 IU/L
[4]
  TERMINAL_BW: 393 g
  APTT: 17.9 s
  Bas: 0%
  Eos: 1%
  Fbg: 293.6 mg/dL
  Hb: 15 g/dL
  Ht: 42.2%
  Lym: 75.4%
  MCH: 20.2 pg
  MCHC: 35.5%
  MCV: 56.8 fL
  Mono: 2.4%
  Neu: 20.6%
  PT: 11.8 s
  Plat: 99.4 x10_4/uL
  RBC: 744.8 x10_4/ul
  Ret: 2.6%
  WBC: 82.8 x10_2/uL
  KIDNEY_L: 1.4 g
  KIDNEY_R: 1.3 g
  KIDNEY_TOTAL: 2.7 g
  LIVER: 16 g
  A/G: 0.8
  ALP: 1035.2 IU/L
  ALT: 45.6 IU/L
  AST: 62.8 IU/L
  BUN: 14 mg/dL
  CRE: 0.3 mg/dL
  Ca: 10.8 mg/dL
  Cl: 106.2 meq/L
  DBIL: 0.006 mg/dL
  GLC: 183.2 mg/dL
  IP: 6 mg/dL
  K: 4 meq/L
  LDH: 57 IU/L
  Na: 142.4 meq/L
  PL: 143.6 mg/dL
  RALB: 2.8 g/dL
  TBIL: 0.062 mg/dL
  TC: 74.8 mg/dL
  TG: 88 mg/dL
  TP: 6.3 g/dL
  gamma-GTP: 1 IU/L
[5]
  TERMINAL_BW: 226.8 g
  APTT: 15.5 s
  Bas: 0%
  Eos: 1%
  Fbg: 275.6 mg/dL
  Hb: 13.5 g/dL
  Ht: 40.1%
  Lym: 75.2%
  MCH: 22 pg
  MCHC: 33.8%
  MCV: 65.1 fL
  Mono: 2.8%
  Neu: 20.6%
  PT: 12 s
  Plat: 108.6 x10_4/uL
  RBC: 616.2 x10_4/ul
  Ret: 6.5%
  WBC: 81.9 x10_2/uL
  KIDNEY_L: 0.9 g
  KIDNEY_R: 0.9 g
  KIDNEY_TOTAL: 1.8 g
  LIVER: 11.1 g
  A/G: 0.9
  ALP: 1849 IU/L
  ALT: 50.8 IU/L
  AST: 75.8 IU/L
  BUN: 15.6 mg/dL
  CRE: 0.2 mg/dL
  Ca: 11 mg/dL
  Cl: 107.2 meq/L
  DBIL: 0.012 mg/dL
  GLC: 188.8 mg/dL
  IP: 7.5 mg/dL
  K: 4.3 meq/L
  LDH: 64.8 IU/L
  Na: 143.8 meq/L
  PL: 136.4 mg/dL
  RALB: 2.7 g/dL
  TBIL: 0.024 mg/dL
  TC: 78.4 mg/dL
  TG: 73.2 mg/dL
  TP: 5.8 g/dL
  gamma-GTP: 1 IU/L
[6]
  TERMINAL_BW: 270.7 g
  APTT: 18.3 s
  Bas: 0%
  Eos: 0.8%
  Fbg: 275.8 mg/dL
  Hb: 13.2 g/dL
  Ht: 39.2%
  Lym: 79.2%
  MCH: 20.7 pg
  MCHC: 33.7%
  MCV: 61.4 fL
  Mono: 3%
  Neu: 16.2%
  PT: 11.8 s
  Plat: 118.3 x10_4/uL
  RBC: 639.2 x10_4/ul
  Ret: 6.4%
  WBC: 84.5 x10_2/uL
  KIDNEY_L: 1.1 g
  KIDNEY_R: 1.1 g
  KIDNEY_TOTAL: 2.1 g
  LIVER: 13.8 g
  A/G: 0.9
  ALP: 1690.2 IU/L
  ALT: 50 IU/L
  AST: 68.4 IU/L
  BUN: 17.8 mg/dL
  CRE: 0.2 mg/dL
  Ca: 11.5 mg/dL
  Cl: 106.4 meq/L
  DBIL: 0.016 mg/dL
  GLC: 183.8 mg/dL
  IP: 7.2 mg/dL
  K: 4.4 meq/L
  LDH: 74.2 IU/L
  Na: 143.4 meq/L
  PL: 150.8 mg/dL
  RALB: 2.8 g/dL
  TBIL: 0.028 mg/dL
  TC: 84.2 mg/dL
  TG: 75.2 mg/dL
  TP: 6 g/dL
  gamma-GTP: 1 IU/L
[7]
  TERMINAL_BW: 321.2 g
  APTT: 16.3 s
  Bas: 0%
  Eos: 0.8%
  Fbg: 282.2 mg/dL
  Hb: 14.6 g/dL
  Ht: 42.3%
  Lym: 83.4%
  MCH: 20.9 pg
  MCHC: 34.6%
  MCV: 60.3 fL
  Mono: 1.6%
  Neu: 13.6%
  PT: 11.7 s
  Plat: 118.8 x10_4/uL
  RBC: 700.4 x10_4/ul
  Ret: 4.7%
  WBC: 92.5 x10_2/uL
  KIDNEY_L: 1.2 g
  KIDNEY_R: 1.2 g
  KIDNEY_TOTAL: 2.4 g
  LIVER: 16.1 g
  A/G: 0.9
  ALP: 1402 IU/L
  ALT: 41 IU/L
  AST: 61 IU/L
  BUN: 14.2 mg/dL
  CRE: 0.2 mg/dL
  Ca: 11.3 mg/dL
  Cl: 106.8 meq/L
  DBIL: 0.008 mg/dL
  GLC: 180.4 mg/dL
  IP: 6.9 mg/dL
  K: 4.1 meq/L
  LDH: 65.8 IU/L
  Na: 143.6 meq/L
  PL: 140.8 mg/dL
  RALB: 2.8 g/dL
  TBIL: 0.056 mg/dL
  TC: 83 mg/dL
  TG: 87.6 mg/dL
  TP: 6.1 g/dL
  gamma-GTP: 1 IU/L
[8]
  TERMINAL_BW: 415.3 g
  APTT: 17.5 s
  Bas: 0%
  Eos: 1.2%
  Fbg: 274.6 mg/dL
  Hb: 15.1 g/dL
  Ht: 43%
  Lym: 77.6%
  MCH: 19.7 pg
  MCHC: 35.1%
  MCV: 56.2 fL
  Mono: 2.4%
  Neu: 18.6%
  PT: 11.7 s
  Plat: 106.6 x10_4/uL
  RBC: 765 x10_4/ul
  Ret: 2.5%
  WBC: 77 x10_2/uL
  KIDNEY_L: 1.3 g
  KIDNEY_R: 1.3 g
  KIDNEY_TOTAL: 2.7 g
  LIVER: 17.9 g
  A/G: 0.8
  ALP: 1043 IU/L
  ALT: 40.6 IU/L
  AST: 60 IU/L
  BUN: 15.4 mg/dL
  CRE: 0.3 mg/dL
  Ca: 10.6 mg/dL
  Cl: 106.6 meq/L
  DBIL: 0.01 mg/dL
  GLC: 176.6 mg/dL
  IP: 5.8 mg/dL
  K: 4.2 meq/L
  LDH: 53 IU/L
  Na: 142.8 meq/L
  PL: 137.4 mg/dL
  RALB: 2.8 g/dL
  TBIL: 0.06 mg/dL
  TC: 71.2 mg/dL
  TG: 117 mg/dL
  TP: 6.3 g/dL
  gamma-GTP: 1 IU/L
